Measured values reported in ChEMBL document CHEMBL1201862, “PubChem BioAssay data set” (2004).
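Interpolation was linear, between the two tested concentrations surrounding the appropriate level; five concentrations were tested over 48 hours in 96-well plates. At the GI50, growth is halved.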 Active and inactive are the calls of the source. No stated cut-off is given here; in the data, active = GI50 up to about 1.1 µM and inactive = higher.

Tests used:
Experiment in all cases: DTP human tumour cell line panel, 48 h
[1] = tested on: SF-295
[2] = tested on: 786-0
[3] = tested on: RPMI-8226
[4] = tested on: SF-539
[5] = tested on: CCRF-CEM
[6] = tested on: BT-549
[7] = tested on: MDA-MB-435
[8] = tested on: NCI-H522
[9] = tested on: SF-268
[10] = tested on: A549
[11] = tested on: SK-MEL-5
[12] = tested on: OVCAR-3
[13] = tested on: COLO 205
[14] = tested on: OVCAR-4
[15] = tested on: SNB-19
[16] = tested on: CAKI-1
[17] = tested on: Hs-578T
[18] = tested on: OVCAR-5
[19] = tested on: EKVX

Measured: GI50

O=C(CCc1ccccc1CO)NCCc1ccccc1
inactive: [1] > 100 µM | [2] > 100 µM | [3] > 100 µM | [4] > 100 µM | [5] > 100 µM | [6] > 100 µM | [7] > 100 µM | [8] > 100 µM | [9] > 100 µM | [10] > 100 µM | [11] > 100 µM | [12] > 100 µM | [13] > 100 µM | [14] 59.6 µM | [15] 15.9 µM | [16] > 100 µM | [17] 20 µM | [18] > 100 µM | [19] > 100 µM

Cc1cc(S(=O)(=O)O)ccc1/N=N/c1c(O)ccc2ccccc12
inactive: [1] > 100 µM | [2] > 100 µM | [3] > 100 µM | [5] > 100 µM | [6] > 100 µM | [7] > 100 µM | [8] > 100 µM | [9] > 100 µM | [10] > 100 µM | [11] > 100 µM | [12] > 100 µM | [13] > 100 µM | [14] > 100 µM | [15] > 100 µM | [16] > 100 µM | [17] > 100 µM | [18] > 100 µM | [19] > 100 µM

Cc1cccc(NS(=O)(=O)c2ccc(/N=N/c3c(O)c(C(=O)O)cc4ccccc34)cc2)n1
inactive: [1] > 100 µM | [2] > 100 µM | [3] > 100 µM | [4] > 100 µM | [5] > 100 µM | [6] > 100 µM | [7] > 100 µM | [8] > 100 µM | [9] > 100 µM | [10] > 100 µM | [11] > 100 µM | [12] > 100 µM | [13] > 100 µM | [14] > 100 µM | [15] > 100 µM | [16] > 100 µM | [17] > 100 µM | [18] > 100 µM | [19] > 100 µM

N=C(N)C1CN(CCc2c[nH]cn2)C(=O)NC1=O (stereo not given)
inactive: [1] > 100 µM | [2] > 100 µM | [3] > 100 µM | [4] > 100 µM | [5] > 100 µM | [6] > 100 µM | [7] > 100 µM | [8] > 100 µM | [9] > 100 µM | [10] > 100 µM | [11] > 100 µM | [12] > 100 µM | [13] > 100 µM | [14] > 100 µM | [15] > 100 µM | [16] > 100 µM | [17] > 100 µM | [18] > 100 µM | [19] > 100 µM
